Test results from ChEMBL document CHEMBL5154911, “Palmatine Derivatives as Potential Antiplatelet Aggregation Agents via Protein Kinase G/Vasodilator-Stimulated Phosphoprotein and Phosphatidylinositol 3-Kinase/Akt Phosphorylation” (J Med Chem, 2022).
Active and inactive are the calls of the source. No cut-off for these calls is given here.

How the values were obtained:
[1] = Acute toxicity in Kunming mouse assessed as effect on glutamic pyruvic transaminase at 250 to 1000 mg/kg, po measured after 14 days; format: organism-based; details: in vivo, 336 h, dose 250-1000 mg/kg, time 14 day
[2] = Metabolic stability in human liver microsomes assessed as compound remaining at 1 uM measured after 60 mins in presence of NADPH by LC-MS/MS analysis; format: ADME, Microsome; details: read-out: Stability
[3] = Metabolic stability in human liver microsomes assessed as liver intrinsic clearance at 1 uM incubated upto 60 min in presence of NADPH by LC-MS/MS analysis; format: ADME, Microsome; details: 1 h
[4] = Antiplatelet activity against ADP-induced C57BL/6J mouse platelet aggregation assessed as inhibition of platelet aggregation at 10 uM preincubated for 10 mins followed by ADP addition relative to control; format: functional; design: scale not given: the % may be the effect or the level left
Platelet [5] = experiment: Antiplatelet activity against ADP-induced C57BL/6J mouse platelet aggregation assessed as reduction in P-selectin surface levels by measuring increase median fluorescence intensities at 10 uM incubated for 10 min by flow cytometry analysis; format: functional, cell-based
[6] = Metabolic stability in CD-1 mouse liver microsomes assessed as compound remaining at 1 uM measured after 60 mins in presence of NADPH by LC-MS/MS analysis; format: ADME, Microsome; details: read-out: Stability
[7] = Metabolic stability in CD-1 mouse liver microsomes assessed as microsomal intrinsic clearance at 1 uM incubated upto 60 min in presence of NADPH by LC-MS/MS analysis; format: ADME, Microsome; details: read-out: CLH
[8] = Antiplatelet activity against ADP-induced C57BL/6J mouse platelet aggregation assessed as maximal aggregration rate at 10 uM preincubated for 10 mins followed by ADP addition relative to control; format: functional
Mus musculus [9] = experiment: Antithrombotic activity in BALB/c mouse model of carrageenan-induced thrombus formation assessed as inhibition of thrombosis rate in tail at 100 mg/kg, iv measured after 14 days; format: functional, organism-based; details: time 14.0 day
[10] = Metabolic stability in Sprague-Dawley rat liver microsomes assessed as half life at 1 uM incubated upto 60 min in presence of NADPH by LC-MS/MS analysis; format: ADME, Microsome
[11] = Metabolic stability in human liver microsomes assessed as microsomal intrinsic clearance at 1 uM incubated upto 60 min in presence of NADPH by LC-MS/MS analysis; format: ADME, Microsome; details: read-out: CLH
[12] = Metabolic stability in Sprague-Dawley rat liver microsomes assessed as microsomal intrinsic clearance at 1 uM incubated upto 60 min in presence of NADPH by LC-MS/MS analysis; format: ADME, Microsome; details: read-out: CLH
Platelet [13] = experiment: Antiplatelet activity against ADP-induced C57BL/6J mouse platelet aggregation assessed as reduction in integrin alphaIIbbeta3 surface levels by measuring increase median fluorescence intensities at 10 uM incubated for 10 min by flow cytometry analysis; format: functional, cell-based
Platelet [14] = experiment: Antiplatelet activity against ADP-induced C57BL/6J mouse platelet aggregation assessed as reduction on platelet aggregation at 2.5 to 10 uM preincubated for 10 mins followed by ADP addition; format: functional, cell-based; details: dose 2.5-10 µM, DDE = dose-dependent effect
Mus musculus [15] = experiment: Antiplatelet activity against ADP-induced C57BL/6J mouse platelet aggregation assessed as reduction in P-selectin surface levels at 100 mg/kg, po measured after 2 weeks by flow cytometry analysis; format: functional, organism-based
[16] = Metabolic stability in CD-1 mouse liver microsomes assessed as liver intrinsic clearance at 1 uM incubated upto 60 min in presence of NADPH by LC-MS/MS analysis; format: ADME, Microsome; details: 1 h
[17] = Cytotoxicity against human HUVEC cells assessed as cell vaibility at 100 uM by MTS assay; format: toxicity, cell-based; details: read-out: Activity
[18] = Metabolic stability in human liver microsomes assessed as half life at 1 uM incubated upto 60 min in presence of NADPH by LC-MS/MS analysis; format: ADME, Microsome
Lung [19] = experiment: Antithrombotic activity in BALB/c mouse model of carrageenan-induced thrombus formation assessed as reduced thrombus formation in lung at 100 mg/kg, iv measured after 14 days by H and E staining based assay; format: functional, organism-based; details: time 14.0 day
[20] = Acute toxicity in Kunming mouse assessed as effect on blood urea nitrogen at 250 to 1000 mg/kg, po measured after 14 days; format: organism-based; details: in vivo, 336 h, dose 250-1000 mg/kg, time 14 day
Mus musculus [21] = experiment: Antiplatelet activity against ADP-induced C57BL/6J mouse platelet aggregation assessed as reduction in integrin alphaIIbbeta3 surface level at 100 mg/kg, po measured after 2 weeks by flow cytometry analysis; format: functional, organism-based
[22] = Acute toxicity in Kunming mouse assessed as effect on creatine at 250 to 1000 mg/kg, po measured after 14 days; format: organism-based; details: in vivo, 336 h, dose 250-1000 mg/kg, time 14 day
Mus musculus [23] = experiment: Antiplatelet activity against ADP-induced C57BL/6J mouse platelet aggregation assessed as inhibition of platelet aggregation at 100 mg/kg, po measured after 2 weeks; format: functional, organism-based
Mus musculus [24] = experiment: Antithrombotic activity in BALB/c mouse model of carrageenan-induced thrombus formation assessed as reduced thrombus area in tail at 100 mg/kg, iv measured after 14 days by H and E staining based assay; format: functional, organism-based; details: time 14.0 day
[25] = Metabolic stability in Sprague-Dawley rat liver microsomes assessed as compound remaining at 1 uM measured after 60 mins in presence of NADPH by LC-MS/MS analysis; format: ADME, Microsome; details: read-out: Stability
[26] = Acute toxicity in po dosed Kunming mouse assessed as lethal dose measured after 14 days; format: organism-based; details: in vivo, time 14 day
Mus musculus [27] = experiment: Antithrombotic activity in BALB/c mouse model of carrageenan-induced thrombus formation assessed as reduced serum P-selectin level at 100 mg/kg, iv measured after 14 days by ELISA; format: functional, organism-based; details: time 14.0 day
Platelet [28] = experiment: Inhibition of ADP-induced Akt activation in C57BL/6J mouse platelet assessed as reduction of AKT phosphorylation at Ser473 by western blot analysis; format: cell-based
[29] = Metabolic stability in Sprague-Dawley rat liver microsomes assessed as liver intrinsic clearance at 1 uM incubated upto 60 min in presence of NADPH by LC-MS/MS analysis; format: ADME, Microsome; details: 1 h
[30] = Binding affinity to sensorchip-immobilized PI3K (unknown origin) by surface plasmon resonance analysis; design: species or system Homo sapiens
[31] = Acute toxicity in Kunming mouse assessed as effect on glutamic oxalacetic transaminase at 250 to 1000 mg/kg, po measured after 14 days; format: organism-based; details: in vivo, 336 h, dose 250-1000 mg/kg, time 14 day
Platelet [32] = experiment: Inhibition of ADP-induced Akt activation in C57BL/6J mouse platelet assessed as reduction of AKT phosphorylation at Ser473 at 0.5 to 20 uM by western blot analysis; format: cell-based; details: dose 0.5-20 µM, DDE = dose-dependent effect
Platelet [33] = experiment: Antiplatelet activity against ADP-induced C57BL/6J mouse platelet aggregation assessed as increase in VASP phosphorylation level at 0.5 to 20 uM by western blotting analysis; format: functional, cell-based; details: dose 0.5-20 µM
[34] = Metabolic stability in CD-1 mouse liver microsomes assessed as half life at 1 uM incubated upto 60 min in presence of NADPH by LC-MS/MS analysis; format: ADME, Microsome
Platelet [35] = experiment: Inhibition of ADP-induced Akt activation in C57BL/6J mouse platelets assessed as reduction in phosphorylation Akt level at Ser473 at 100 mg/kg, po measured after 2 weeks by western blot analysis; format: organism-based
Mus musculus [36] = experiment: Antithrombotic activity in BALB/c mouse model of carrageenan-induced thrombus formation assessed as reduced serum P-selectin level at 20 mg/kg, iv measured after 14 days by ELISA; format: functional, organism-based; details: time 14.0 day
Mus musculus [37] = experiment: Antiplatelet activity against ADP-induced C57BL/6J mouse platelet aggregation assessed as inhibition of platelet aggregation at 20 mg/kg, po measured after 2 weeks; format: functional, organism-based
Mus musculus [38] = experiment: Antithrombotic activity in BALB/c mouse model of carrageenan-induced thrombus formation assessed as inhibition of thrombosis rate in tail at 20 mg/kg, iv measured after 14 days; format: functional, organism-based; details: time 14.0 day
Lung [39] = experiment: Antithrombotic activity in BALB/c mouse model of carrageenan-induced thrombus formation assessed as reduced thrombus formation in lung at 20 mg/kg, iv measured after 14 days by H and E staining based assay; format: functional, organism-based; details: time 14.0 day
Platelet [40] = experiment: Inhibition of ADP-induced Akt activation in C57BL/6J mouse platelets assessed as reduction in phosphorylation Akt level at Ser473 at 20 mg/kg, po measured after 2 weeks by western blot analysis; format: organism-based
Mus musculus [41] = experiment: Antiplatelet activity against ADP-induced C57BL/6J mouse platelet aggregation assessed as reduction in P-selectin surface levels at 20 mg/kg, po measured after 2 weeks by flow cytometry analysis; format: functional, organism-based
Mus musculus [42] = experiment: Antiplatelet activity against ADP-induced C57BL/6J mouse platelet aggregation assessed as reduction in integrin alphaIIbbeta3 surface level at 20 mg/kg, po measured after 2 weeks by flow cytometry analysis; format: functional, organism-based

CCCOc1c(OC)ccc2cc3[n+](cc12)CCc1cc(OC)c(OC)cc1-3.[Br-]
Activity [1]: Non-Toxic | remaining at 1 h, 1 µM [2]: 117% | CLH [3]: < 8.6 mL/min/kg | Activity [4]: 37.8% | Activity (Platelet [5]): Active | remaining at 1 h, 1 µM [6]: 39% | microsomal CLint at 1 µM [7]: 31 µL/min/mg | %max [8]: 26.9% | inhibition (Mus musculus [9]): Active | half-life at 1 µM [10]: > 2.42 h | microsomal CLint at 1 µM [11]: < 9.6 µL/min/mg | microsomal CLint at 1 µM [12]: < 9.6 µL/min/mg | Activity (Platelet [13]): Active | Activity (Platelet [14]): Dde | Activity (Mus musculus [15]): Active | CLH [16]: 123 mL/min/kg | viability at 100 µM [17]: 90% | half-life at 1 µM [18]: > 2.42 h | Activity (Lung [19]): Active | Activity [20]: Non-Toxic | Activity (Mus musculus [21]): Active | Activity [22]: Non-Toxic | Activity (Mus musculus [23]): Active | inhibition (Mus musculus [24]): Active | remaining at 1 h, 1 µM [25]: 79% | LD50 at 336 h [26]: 1000 mg/kg | Activity (Mus musculus [27]): Active | inhibition (Platelet [28]): Active | CLH [29]: < 17.3 mL/min/kg | Kd [30]: 25.5 µM | Activity [31]: Non-Toxic | inhibition (Platelet [32]): Dde | Activity (Platelet [33]): Active | half-life at 1 µM [34]: 0.745 h | inhibition (Platelet [35]): Active

CC(=O)Oc1ccccc1C(=O)O [ASPIRIN]
Activity (Mus musculus [36]): Active | Activity (Mus musculus [37]): Active | Activity (Mus musculus [38]): Active | %max [8]: 26.4% | Activity (Lung [39]): Active | inhibition (Platelet [40]): Active | inhibition (Platelet [28]): Active | Activity (Mus musculus [41]): Active | Activity (Mus musculus [42]): Active
